The values that follow come from patent publication US20230079045A1 (priority 2019, published 2023).

The subject of one assay is IFVA/Mal/302/54. Briefly: cytopathic effect (CPE) antiviral test in MDCK cells, IFVA/Mal/302/54. In kind it is cell-based, influenza virus.
In a further assay the test system is IFVA/Weiss/43. Briefly: cytopathic effect (CPE) antiviral test in MDCK cells, IFVA/Weiss/43. In kind it is cell-based, influenza virus. For orientation: Cytopathic effects are the visible damage that an infection or toxin causes in cultured cells.
The mark [1] stands for this setting: unidentified influenza virus, MDCK, 120 h, read-out: EC50(IFVA/Mal/302/54), MDCK cells, CPE method, CCK-8 cell viability, 5 days.
[2] abbreviates: unidentified influenza virus, MDCK, 120 h, read-out: EC50(IFVA/Weiss/43), MDCK cells, CPE method, CCK-8 cell viability, 5 days.
Setting [3] is: read-out: EC50(IFVA/Mal/302/54), MDCK cells, CPE method, CCK-8 cell viability, 5 days.
[4] abbreviates: read-out: EC50(IFVA/Weiss/43), MDCK cells, CPE method, CCK-8 cell viability, 5 days.

Like-named read-outs stand apart in the source and are kept apart here.

`O=C(c1cc(-c2nc3cc(-c4cscn4)ccc3o2)ccn1)N1CCN(C(c2ccccc2)c2nnn(C(F)F)n2)CC1` (racemic) [Compound 110, (R/S)-(4-((2-(difluoromethyl)-2H-tetrazol-5-yl)(phenyl)methyl)piperazin-1-yl)(4-(5-(thiazol-4-yl)benzo[d]oxazol-2-yl)pyridin-2-yl)methanone]: the EC50 in the assay on IFVA/Mal/302/54 (setting [1]) and with IFVA/Weiss/43 (setting [2]) was 3 nM each time.

As for `O=C(Nc1ccc2oc(-c3ccnc(C(=O)N4CCN(C(c5ccccc5)c5nnn(C(F)F)n5)CC4)c3)nc2c1)C1CC1` (racemic) [Compound 196, (R/S)—N-(2-(2-(4-((2-(difluoromethyl)-2H-tetrazol-5-yl)(phenyl)methyl)piperazine-1-carbonyl)pyridin-4-yl)benzo[d]oxazol-5-yl)cyclopropanecarboxamide], the values for the EC50 in the assay with IFVA/Mal/302/54 (setting [1]) and with IFVA/Weiss/43 (setting [2]) were 8 nM and 6 nM, respectively.

For `CC(=O)Nc1ccc2oc(-c3ccnc(C(=O)N4CCN(C(c5ccccc5)c5nnn(C)n5)[C@H](C)C4)c3)nc2c1` (single isomer, unassigned) [Compound 16b], the EC50 in the assay on IFVA/Mal/302/54 (setting [1]) and with IFVA/Weiss/43 (setting [2]) was greater than 10000 nM throughout.

For the molecule `O=C(Nc1ccc2oc(-c3ccnc(C(=O)N4CCN(C(c5ccccc5)c5nnn(C(F)F)n5)CC4)c3)nc2c1)C1CC1(F)F` (single isomer, unassigned) [Compound 82, (R/S)—N-(2-(2-(4-((R/S)-(2-(difluoromethyl)-2H-tetrazol-5-yl)(phenyl)methyl)piperazine-1-carbonyl)pyridin-4-yl)benzo[d]oxazol-5-yl)-2,2-difluorocyclopropane-1-carboxamide], the EC50 in the assay on IFVA/Mal/302/54 (setting [1]) was determined as 11 nM; in the assay on IFVA/Weiss/43 (setting [2]), 7 nM.

For `Cn1nnc(C(c2ccccc2)N2CCN(C(=O)c3cc(-c4nc5cc(OC6CCOC6)ccc5o4)ccn3)CC2)n1` (stereo in doubt) [Compound 43, (4-((2-methyl-2H-tetrazol-5-yl)(phenyl)methyl)piperazin-1-yl)(4-(5-(((R)-tetrahydrofuran-3-yl)oxy)benzo[d]oxazol-2-yl)pyridin-2-yl)methanone], the EC50 was found to be 10 nM with IFVA/Mal/302/54 (setting [3]) and 57 nM in the assay on IFVA/Weiss/43 (setting [4]).

Consider `CC(=O)Nc1ccc2oc(-c3ccnc(C(=O)N4CC5CCC(C4)N5C(c4ccccc4)c4nnn(C)n4)c3)nc2c1` (stereo not shown) [Compound 1, N-(2-(2-(8-((2-methyl-2H-tetrazol-5-yl)(phenyl)methyl)-3,8-diazabicyclo[3.2.1]octane-3-carbonyl)pyridin-4-yl)benzo[d]oxazol-5-yl)acetamide], for which the values for the EC50 in the assay with IFVA/Mal/302/54 (setting [1]) and in the assay on IFVA/Weiss/43 (setting [2]) were 573 nM and 480 nM, respectively.

On to `Cn1nnc(C(c2ccccc2)N2CCN(C(=O)c3cc(-c4nc5cc(N6CCCC6=O)ccc5o4)ccn3)CC2)n1` (stereo not shown) [Compound 2, 1-(2-(2-(4-((2-methyl-2H-tetrazol-5-yl)(phenyl)methyl)piperazine-1-carbonyl)pyridin-4-yl)benzo[d]oxazol-5-yl)pyrrolidin-2-one], for which the EC50 with IFVA/Mal/302/54 (setting [1]) was 26 nM; in the assay on IFVA/Weiss/43 (setting [2]) it was less than 5 nM.

Take `CC(=O)Nc1ccc2oc(-c3ccnc(C(=O)N4CC5CN(C(c6ccccc6)c6nnn(C)n6)CC5C4)c3)nc2c1` (stereo not shown) [Compound 3, N-(2-(2-(5-((2-methyl-2H-tetrazol-5-yl)(phenyl)methyl)octahydropyrrolo[3,4-c]pyrrole-2-carbonyl)pyridin-4-yl)benzo[d]oxazol-5-yl)acetamide]: the EC50 was found to be 1170 nM in the assay with IFVA/Mal/302/54 (setting [1]) and 780 nM in the assay with IFVA/Weiss/43 (setting [2]).

For `CC(=O)Nc1ccc2oc(-c3ccnc(C(=O)N4CCN(C(c5ccccc5)c5nnn(C)n5)CC45CC5)c3)nc2c1` (stereo not shown) [Compound 5, N-(2-(2-(7-((2-methyl-2H-tetrazol-5-yl)(phenyl)methyl)-4,7-diazaspiro[2.5]octane-4-carbonyl)pyridin-4-yl)benzo[d]oxazol-5-yl)acetamide], the EC50 in the assay with IFVA/Mal/302/54 (setting [1]) is 24 nM; in the assay with IFVA/Weiss/43 (setting [2]), 16 nM.

`CC(=O)Nc1ccc2oc(-c3ccnc(C(=O)N4C[C@H]5C[C@@H]4CN5C(c4ccccc4)c4nnn(C)n4)c3)nc2c1` (stereo partly drawn) [Compound 6a, N-(2-(2-((1R,4R)-5-((2-methyl-2H-tetrazol-5-yl)(phenyl)methyl)-2,5-diazabicyclo[2.2.1]heptane-2-carbonyl)pyridin-4-yl)benzo[d]oxazol-5-yl)acetamide]: the EC50 with IFVA/Mal/302/54 (setting [1]) is greater than 10000 nM; with IFVA/Weiss/43 (setting [2]), greater than 7870 nM.

`CC(=O)Nc1ccc2oc(-c3ccnc(C(=O)N4C[C@H]5C[C@@H]4CN5C(c4ccccc4)c4nnn(C)n4)c3)nc2c1` (stereo partly drawn) [Compound 6b, N-(2-(2-((1R,4R)-5-((2-methyl-2H-tetrazol-5-yl)(phenyl)methyl)-2,5-diazabicyclo[2.2.1]heptane-2-carbonyl)pyridin-4-yl)benzo[d]oxazol-5-yl)acetamide]: the EC50 in the assay on IFVA/Mal/302/54 (setting [3]) and in the assay on IFVA/Weiss/43 (setting [4]) was greater than 10000 nM each time.

As for `CC(=O)Nc1ccc2oc(-c3ccnc(C(=O)N4CCN(C(c5ccccc5)c5nnn(C)n5)C5(CC5)C4)c3)nc2c1` (stereo not shown) [Compound 7, N-(2-(2-(4-((2-methyl-2H-tetrazol-5-yl)(phenyl)methyl)-4,7-diazaspiro[2.5]octane-7-carbonyl)pyridin-4-yl)benzo[d]oxazol-5-yl)acetamide], the values for the EC50 in the assay with IFVA/Mal/302/54 (setting [1]) and in the assay with IFVA/Weiss/43 (setting [2]) were 841 nM and 520 nM, respectively.

As for `CC(=O)Nc1ccc2oc(-c3ccnc(C(=O)N4CC5(CCN(C(c6ccccc6)c6nnn(C)n6)CC5)C4)c3)nc2c1` (stereo not shown) [Compound 8, N-(2-(2-(7-((2-methyl-2H-tetrazol-5-yl)(phenyl)methyl)-2,7-diazaspiro[3.5]nonane-2-carbonyl)pyridin-4-yl)benzo[d]oxazol-5-yl)acetamide], the EC50 with IFVA/Mal/302/54 (setting [1]) and in the assay on IFVA/Weiss/43 (setting [2]) was greater than 10000 nM in each case.

As to `CC(=O)Nc1ccc2oc(-c3ccnc(C(=O)N4CCN(C(c5nnn(C)n5)c5ccccc5F)CC4)c3)nc2c1` (stereo not shown) [Compound 9, N-(2-(2-(4-((2-fluorophenyl)(2-methyl-2H-tetrazol-5-yl)methyl)piperazine-1-carbonyl)pyridin-4-yl)benzo[d]oxazol-5-yl)acetamide], the EC50 in the assay on IFVA/Mal/302/54 (setting [1]) came out at 214 nM; in the assay on IFVA/Weiss/43 (setting [2]) it was 126 nM.

In the case of `CC(=O)Nc1ccc2oc(-c3ccnc(C(=O)N4CC5(C4)CN(C(c4ccccc4)c4nnn(C)n4)C5)c3)nc2c1` (stereo not shown) [Compound 10, N-(2-(2-(6-((2-methyl-2H-tetrazol-5-yl)(phenyl)methyl)-2,6-diazaspiro[3.3]heptane-2-carbonyl)pyridin-4-yl)benzo[d]oxazol-5-yl)acetamide], the EC50 with IFVA/Mal/302/54 (setting [1]) and in the assay with IFVA/Weiss/43 (setting [2]) was greater than 10000 nM each time.

In the case of `CC(=O)Nc1ccc2oc(-c3ccnc(C(=O)N4CCN(C(c5cccc(F)c5)c5nnn(C)n5)CC4)c3)nc2c1` (stereo not shown) [Compound 11, N-(2-(2-(4-((3-fluorophenyl)(2-methyl-2H-tetrazol-5-yl)methyl)piperazine-1-carbonyl)pyridin-4-yl)benzo[d]oxazol-5-yl)acetamide], the EC50 was 260 nM in the assay on IFVA/Mal/302/54 (setting [1]) and 173 nM in the assay with IFVA/Weiss/43 (setting [2]).

As to `CC(=O)Nc1ccc2oc(-c3ccnc(C(=O)N4CCN(C(c5ccc(F)cc5)c5nnn(C)n5)CC4)c3)nc2c1` (stereo not shown) [Compound 12, N-(2-(2-(4-((4-fluorophenyl)(2-methyl-2H-tetrazol-5-yl)methyl)piperazine-1-carbonyl)pyridin-4-yl)benzo[d]oxazol-5-yl)acetamide], the EC50 came to 55 nM with IFVA/Mal/302/54 (setting [1]) and 22 nM in the assay with IFVA/Weiss/43 (setting [2]).

In the case of `CC(=O)Nc1ccc2oc(-c3ccnc(C(=O)N4CCC5(CC4)CN(C(c4ccccc4)c4nnn(C)n4)C5)c3)nc2c1` (stereo not shown) [Compound 13, N-(2-(2-(2-((2-methyl-2H-tetrazol-5-yl)(phenyl)methyl)-2,7-diazaspiro[3.5]nonane-7-carbonyl)pyridin-4-yl)benzo[d]oxazol-5-yl)acetamide], the values for the EC50 in the assay with IFVA/Mal/302/54 (setting [1]) and in the assay with IFVA/Weiss/43 (setting [2]) were 7830 nM and greater than 10000 nM, respectively.

As to `CC(=O)Nc1ccc2oc(-c3ccnc(C(=O)N4C[C@@H]5C[C@H]4CN5C(c4ccccc4)c4nnn(C)n4)c3)nc2c1` (stereo partly drawn) [Compound 14, N-(2-(2-((1S,4S)-5-((2-methyl-2H-tetrazol-5-yl)(phenyl)methyl)-2,5-diazabicyclo[2.2.1]heptane-2-carbonyl)pyridin-4-yl)benzo[d]oxazol-5-yl)acetamide], the EC50 stood at 1100 nM with IFVA/Mal/302/54 (setting [1]) and 383 nM with IFVA/Weiss/43 (setting [2]).

As to `CC(=O)Nc1ccc2oc(-c3ccc(C#N)c(C(=O)N4CCN(C(c5ccccc5)c5nnn(C)n5)CC4)c3)nc2c1` (stereo not shown) [Compound 15, N-(2-(4-cyano-3-(4-((2-methyl-2H-tetrazol-5-yl)(phenyl)methyl)piperazine-1-carbonyl)phenyl)benzo[d]oxazol-5-yl)acetamide], the EC50 with IFVA/Mal/302/54 (setting [1]) and with IFVA/Weiss/43 (setting [2]) was greater than 10000 nM in each case.

Turning to `CC(=O)Nc1ccc2oc(-c3ccnc(C(=O)N4C5CCC4CN(C(c4ccccc4)c4nnn(C(F)F)n4)C5)c3)nc2c1` (stereo not shown) [Compound 17, N-(2-(2-(3-((2-(difluoromethyl)-2H-tetrazol-5-yl)(phenyl)methyl)-3,8-diazabicyclo[3.2.1]octane-8-carbonyl)pyridin-4-yl)benzo[d]oxazol-5-yl)acetamide], the EC50 is 22 nM with IFVA/Mal/302/54 (setting [1]) and 9 nM in the assay with IFVA/Weiss/43 (setting [2]).

Regarding `CC(=O)Nc1ccc2oc(-c3ccnc(C(=O)N4C5CCC4CN(C(c4ccccc4)c4nnnn4C(F)F)C5)c3)nc2c1` (stereo not shown) [Compound 18, N-(2-(2-(3-((1-(difluoromethyl)-1H-tetrazol-5-yl)(phenyl)methyl)-3,8-diazabicyclo[3.2.1]octane-8-carbonyl)pyridin-4-yl)benzo[d]oxazol-5-yl)acetamide], the EC50 in the assay on IFVA/Mal/302/54 (setting [1]) worked out at 177 nM; in the assay on IFVA/Weiss/43 (setting [2]), 422 nM.

With `Cn1nnc(C(c2ccccc2)N2C[C@H]3CC[C@@H](C2)N3C(=O)c2cc(-c3nc4cc(N5CCCC5=O)ccc4o3)ccn2)n1` (stereo partly drawn) [Compound 19, 1-(2-(2-((1R,5S)-3-((2-methyl-2H-tetrazol-5-yl)(phenyl)methyl)-3,8-diazabicyclo[3.2.1]octane-8-carbonyl)pyridin-4-yl)benzo[d]oxazol-5-yl)pyrrolidin-2-one], the values for the EC50 in the assay with IFVA/Mal/302/54 (setting [1]) and in the assay with IFVA/Weiss/43 (setting [2]) were 19 nM and 23 nM, respectively.
